Several values for one entry are separate records, joined by “and”; a condition that tells them apart may be missing. Equal entries are not always repeated. Where two headings read alike, the source gives them in different places.
Legend:
[1] = target: T1, recombinant human H1 histamine receptor (Homo sapiens, UniProt P35367); assay: Histamine receptor radioligand binding assay, H1; conditions: for H1 Receptor Fold-change over parent: Ki relative to amitriptyline; for Ki: [3H]-Pyrilamine 1.2 nM, CHO membranes; for H1:H2 Selectivity: H2 Ki versus H1 Ki
T1 construct: expressed in transfected cells; host or cells: CHO cells (membranes)
Description: (§1) Competition binding experiments were conducted by incubating membranes with a fixed concentration of radioligand in the presence of variable concentrations of test compounds. The radioligands used were specific for each receptor subtype and the assay conditions are described in Table 2. Following incubations, the membranes were washed and the bound radioactivity was measured. Non-specific binding was measured in the presence of excess unlabelled ligand; this value was subtracted from the total binding yielding the specific binding at each test compound concentration.
(§2) Ki was obtained using the Cheng Prusoff correction using experimental Kd values that were previously determined under the same assay conditions.

[2] = target: T2, recombinant human M1 muscarinic acetylcholine receptor (Homo sapiens, UniProt P11229); assay: Muscarinic receptor binding assay, M1; conditions: 3H-N-Methylscopolamine 0.8 nM, CHO membranes
T2 construct: expressed in transfected cells; host or cells: CHO cells (membranes)
T2 sequence (P11229 1-460): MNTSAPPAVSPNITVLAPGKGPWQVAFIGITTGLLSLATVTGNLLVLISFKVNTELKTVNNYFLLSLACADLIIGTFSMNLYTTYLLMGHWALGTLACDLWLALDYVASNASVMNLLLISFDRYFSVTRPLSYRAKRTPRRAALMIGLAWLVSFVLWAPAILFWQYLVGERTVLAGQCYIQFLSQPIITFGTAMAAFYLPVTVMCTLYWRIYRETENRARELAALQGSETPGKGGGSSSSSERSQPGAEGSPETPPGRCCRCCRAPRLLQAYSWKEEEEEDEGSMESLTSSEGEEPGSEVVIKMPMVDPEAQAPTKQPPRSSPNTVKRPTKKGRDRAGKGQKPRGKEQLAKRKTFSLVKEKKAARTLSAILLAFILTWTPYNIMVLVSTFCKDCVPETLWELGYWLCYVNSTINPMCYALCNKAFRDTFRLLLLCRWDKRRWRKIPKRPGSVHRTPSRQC
Description: (§3) Competition binding experiments were conducted by incubating membranes with a fixed concentration of radioligand in the presence of variable concentrations of test compounds. ^3H—N-Methylscopolamine at 0.8 nM was used as the radioligand for all receptor subtypes. Incubations were carried out for 2 hours at 25° C. in buffer containing 50 mM Tris HCl, 10 mM MgCl2 and 1 mM EDTA. Following incubations, the membranes were washed the bound radioactivity was measured. […] Ki was obtained using the Cheng Prusoff correction using Kd values that were experimental determined previously under these assay conditions.

[3] = target: T3, recombinant human M2 muscarinic acetylcholine receptor (Homo sapiens, UniProt P08172); assay: Muscarinic receptor binding assay, M2; conditions: 3H-N-Methylscopolamine 0.8 nM, CHO membranes
T3 construct: expressed in transfected cells; host or cells: CHO cells (membranes)
T3 sequence (P08172 1-466): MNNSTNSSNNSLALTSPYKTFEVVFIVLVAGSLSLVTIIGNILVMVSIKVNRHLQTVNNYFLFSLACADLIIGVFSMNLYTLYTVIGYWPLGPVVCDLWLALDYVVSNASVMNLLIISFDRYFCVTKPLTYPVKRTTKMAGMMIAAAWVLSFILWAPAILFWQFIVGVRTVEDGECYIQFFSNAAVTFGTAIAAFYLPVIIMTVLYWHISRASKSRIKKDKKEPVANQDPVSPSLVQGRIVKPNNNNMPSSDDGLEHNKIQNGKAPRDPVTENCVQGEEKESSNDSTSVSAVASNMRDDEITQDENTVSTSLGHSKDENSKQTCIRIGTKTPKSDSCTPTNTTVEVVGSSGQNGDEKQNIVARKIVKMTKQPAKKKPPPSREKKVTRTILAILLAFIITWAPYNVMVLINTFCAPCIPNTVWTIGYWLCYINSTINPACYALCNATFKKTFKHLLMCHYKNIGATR
Description: as §3

[4] = target: sodium channels (cardiac INa) in isolated human atrial myocytes (Homo sapiens, UniProt Q14524); assay: Sodium channel assay, whole-cell patch clamp, cardiac INa; format: cell-based; conditions: for IC50: approximate, >50% inhibition not obtained at highest concentration
[5] = system: sodium channels (neuronal INa) in isolated rat dorsal root ganglion cells; assay: Sodium channel assay, whole-cell patch clamp, neuronal INa; format: cell-based; conditions: for IC50: approximate, >50% inhibition not obtained at highest concentration
[6] = pKa and LogP determinations; format: physicochemical
[7] = target: T4, recombinant human H2 histamine receptor (Homo sapiens, UniProt P25021); assay: Histamine receptor radioligand binding assay, H2; conditions: for H2 Receptor Fold-change over parent: Ki relative to amitriptyline; for Ki: [125I]-Aminopotentidine 0.1 nM, CHO membranes
T4 construct: expressed in transfected cells; host or cells: CHO cells (membranes)
Description: as §1, §2

[8] = target: T5, noradrenalin transporters (rat forebrain membranes) (Rattus norvegicus, UniProt Q9WTR4); assay: Noradrenalin transporter binding assay; conditions: for Ki: [3H]-nisoxetine 1.0 nM, rat forebrain membranes, read-out: Ki, binding affinity to noradrenalin transporters
T5 construct: membranes prepared from rat forebrain which express noradrenalin transporters; from tissue; host or cells: rat forebrain membranes
Description: Competition binding experiments were conducted by incubating membranes with 1.0 nM of radioligand, [^3H]-nisoxetine, in the presence of variable concentrations (0.1 nM to 3 μM and 3 nM to 100 μM for parent and PEG conjugates, respectively) of test compounds. The reaction was carried out in 50 mM Tris-HCl (pH 7.4), 300 mM NaCl, 5 mM KCl at 0-4° C. for 4 hours. Following incubations, the membranes were washed, and the bound radioactivity was measured.
Ki was obtained using the Cheng Prusoff correction using experimental Kd values that were previously determined under these assay conditions.

[9] = target: T6, recombinant human M4 muscarinic acetylcholine receptor (Homo sapiens, UniProt P08173); assay: Muscarinic receptor binding assay, M4; conditions: 3H-N-Methylscopolamine 0.8 nM, CHO membranes
T6 construct: expressed in transfected cells; host or cells: CHO cells (membranes)
T6 sequence (P08173 1-479): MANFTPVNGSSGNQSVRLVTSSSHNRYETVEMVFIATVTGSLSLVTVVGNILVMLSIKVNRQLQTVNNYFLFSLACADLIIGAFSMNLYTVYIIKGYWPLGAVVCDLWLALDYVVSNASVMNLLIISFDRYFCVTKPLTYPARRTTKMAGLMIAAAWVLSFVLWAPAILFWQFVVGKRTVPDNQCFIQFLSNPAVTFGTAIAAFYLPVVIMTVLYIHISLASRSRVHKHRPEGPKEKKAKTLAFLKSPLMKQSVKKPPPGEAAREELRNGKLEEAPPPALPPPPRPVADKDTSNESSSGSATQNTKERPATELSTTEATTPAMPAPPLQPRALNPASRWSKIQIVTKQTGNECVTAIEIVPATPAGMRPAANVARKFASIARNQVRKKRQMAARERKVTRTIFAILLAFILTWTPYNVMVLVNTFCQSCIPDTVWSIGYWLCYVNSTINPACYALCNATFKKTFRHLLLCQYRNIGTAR
Description: as §3

[10] = target: T7, recombinant human M5 muscarinic acetylcholine receptor (Homo sapiens, UniProt P08912); assay: Muscarinic receptor binding assay, M5; conditions: 3H-N-Methylscopolamine 0.8 nM, CHO membranes
T7 construct: expressed in transfected cells; host or cells: CHO cells (membranes)
T7 sequence (P08912 1-532): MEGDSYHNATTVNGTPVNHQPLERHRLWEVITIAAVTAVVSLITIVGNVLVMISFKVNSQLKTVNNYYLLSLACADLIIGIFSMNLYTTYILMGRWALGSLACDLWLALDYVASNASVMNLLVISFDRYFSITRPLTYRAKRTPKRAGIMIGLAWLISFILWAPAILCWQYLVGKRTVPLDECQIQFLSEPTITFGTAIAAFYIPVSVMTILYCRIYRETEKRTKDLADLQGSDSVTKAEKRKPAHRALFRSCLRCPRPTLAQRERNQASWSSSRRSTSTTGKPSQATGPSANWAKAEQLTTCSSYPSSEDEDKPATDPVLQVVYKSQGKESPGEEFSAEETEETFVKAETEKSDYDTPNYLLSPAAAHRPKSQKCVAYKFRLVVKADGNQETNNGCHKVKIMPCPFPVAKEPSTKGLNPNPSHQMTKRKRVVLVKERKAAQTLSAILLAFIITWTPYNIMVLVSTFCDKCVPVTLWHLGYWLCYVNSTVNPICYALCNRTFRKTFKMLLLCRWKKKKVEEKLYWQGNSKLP
Description: as §3

[11] = pacing 0.1 Hz, read-out: Cardiac INa IC50 at 0.1 Hz
[12] = pacing 3 Hz, read-out: Cardiac INa IC50 at 3 Hz
[13] = pacing 0.1 Hz, read-out: Neuronal INa IC50 at 0.1 Hz
[14] = pacing 3 Hz, read-out: Neuronal INa IC50 at 3 Hz

T1 sequence (P35367 whole entry): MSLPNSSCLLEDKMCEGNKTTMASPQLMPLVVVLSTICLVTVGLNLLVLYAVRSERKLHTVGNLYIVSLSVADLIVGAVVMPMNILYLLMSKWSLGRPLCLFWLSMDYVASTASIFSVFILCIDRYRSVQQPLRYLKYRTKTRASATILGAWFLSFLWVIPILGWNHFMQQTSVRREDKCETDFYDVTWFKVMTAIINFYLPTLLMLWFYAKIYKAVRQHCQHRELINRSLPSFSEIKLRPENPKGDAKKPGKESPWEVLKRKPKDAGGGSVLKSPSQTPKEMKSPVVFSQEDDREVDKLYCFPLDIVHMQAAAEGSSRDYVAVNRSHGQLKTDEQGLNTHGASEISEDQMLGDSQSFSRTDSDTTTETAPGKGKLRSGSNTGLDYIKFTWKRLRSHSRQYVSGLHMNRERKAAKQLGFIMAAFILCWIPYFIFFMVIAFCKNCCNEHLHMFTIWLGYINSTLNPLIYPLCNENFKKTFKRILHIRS
T5 sequence (Q9WTR4 1-597): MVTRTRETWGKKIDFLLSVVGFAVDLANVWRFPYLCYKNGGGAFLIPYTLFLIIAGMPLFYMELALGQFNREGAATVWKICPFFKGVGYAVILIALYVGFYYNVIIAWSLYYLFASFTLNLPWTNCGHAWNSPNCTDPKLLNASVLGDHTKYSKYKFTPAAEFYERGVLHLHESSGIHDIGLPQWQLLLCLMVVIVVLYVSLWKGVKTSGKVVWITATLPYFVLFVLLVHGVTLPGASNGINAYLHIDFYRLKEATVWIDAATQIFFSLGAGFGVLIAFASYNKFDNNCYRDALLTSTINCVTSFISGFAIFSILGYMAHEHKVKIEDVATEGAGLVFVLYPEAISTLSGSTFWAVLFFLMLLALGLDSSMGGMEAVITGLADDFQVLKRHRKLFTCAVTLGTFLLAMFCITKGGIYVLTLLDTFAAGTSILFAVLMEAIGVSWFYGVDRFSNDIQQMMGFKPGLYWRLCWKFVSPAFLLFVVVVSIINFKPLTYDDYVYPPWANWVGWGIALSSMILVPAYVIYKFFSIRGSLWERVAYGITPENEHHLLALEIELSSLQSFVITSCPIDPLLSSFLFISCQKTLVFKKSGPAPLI
sodium channels (cardiac INa) in isolated human atrial myocytes, sequence (Q14524 whole entry): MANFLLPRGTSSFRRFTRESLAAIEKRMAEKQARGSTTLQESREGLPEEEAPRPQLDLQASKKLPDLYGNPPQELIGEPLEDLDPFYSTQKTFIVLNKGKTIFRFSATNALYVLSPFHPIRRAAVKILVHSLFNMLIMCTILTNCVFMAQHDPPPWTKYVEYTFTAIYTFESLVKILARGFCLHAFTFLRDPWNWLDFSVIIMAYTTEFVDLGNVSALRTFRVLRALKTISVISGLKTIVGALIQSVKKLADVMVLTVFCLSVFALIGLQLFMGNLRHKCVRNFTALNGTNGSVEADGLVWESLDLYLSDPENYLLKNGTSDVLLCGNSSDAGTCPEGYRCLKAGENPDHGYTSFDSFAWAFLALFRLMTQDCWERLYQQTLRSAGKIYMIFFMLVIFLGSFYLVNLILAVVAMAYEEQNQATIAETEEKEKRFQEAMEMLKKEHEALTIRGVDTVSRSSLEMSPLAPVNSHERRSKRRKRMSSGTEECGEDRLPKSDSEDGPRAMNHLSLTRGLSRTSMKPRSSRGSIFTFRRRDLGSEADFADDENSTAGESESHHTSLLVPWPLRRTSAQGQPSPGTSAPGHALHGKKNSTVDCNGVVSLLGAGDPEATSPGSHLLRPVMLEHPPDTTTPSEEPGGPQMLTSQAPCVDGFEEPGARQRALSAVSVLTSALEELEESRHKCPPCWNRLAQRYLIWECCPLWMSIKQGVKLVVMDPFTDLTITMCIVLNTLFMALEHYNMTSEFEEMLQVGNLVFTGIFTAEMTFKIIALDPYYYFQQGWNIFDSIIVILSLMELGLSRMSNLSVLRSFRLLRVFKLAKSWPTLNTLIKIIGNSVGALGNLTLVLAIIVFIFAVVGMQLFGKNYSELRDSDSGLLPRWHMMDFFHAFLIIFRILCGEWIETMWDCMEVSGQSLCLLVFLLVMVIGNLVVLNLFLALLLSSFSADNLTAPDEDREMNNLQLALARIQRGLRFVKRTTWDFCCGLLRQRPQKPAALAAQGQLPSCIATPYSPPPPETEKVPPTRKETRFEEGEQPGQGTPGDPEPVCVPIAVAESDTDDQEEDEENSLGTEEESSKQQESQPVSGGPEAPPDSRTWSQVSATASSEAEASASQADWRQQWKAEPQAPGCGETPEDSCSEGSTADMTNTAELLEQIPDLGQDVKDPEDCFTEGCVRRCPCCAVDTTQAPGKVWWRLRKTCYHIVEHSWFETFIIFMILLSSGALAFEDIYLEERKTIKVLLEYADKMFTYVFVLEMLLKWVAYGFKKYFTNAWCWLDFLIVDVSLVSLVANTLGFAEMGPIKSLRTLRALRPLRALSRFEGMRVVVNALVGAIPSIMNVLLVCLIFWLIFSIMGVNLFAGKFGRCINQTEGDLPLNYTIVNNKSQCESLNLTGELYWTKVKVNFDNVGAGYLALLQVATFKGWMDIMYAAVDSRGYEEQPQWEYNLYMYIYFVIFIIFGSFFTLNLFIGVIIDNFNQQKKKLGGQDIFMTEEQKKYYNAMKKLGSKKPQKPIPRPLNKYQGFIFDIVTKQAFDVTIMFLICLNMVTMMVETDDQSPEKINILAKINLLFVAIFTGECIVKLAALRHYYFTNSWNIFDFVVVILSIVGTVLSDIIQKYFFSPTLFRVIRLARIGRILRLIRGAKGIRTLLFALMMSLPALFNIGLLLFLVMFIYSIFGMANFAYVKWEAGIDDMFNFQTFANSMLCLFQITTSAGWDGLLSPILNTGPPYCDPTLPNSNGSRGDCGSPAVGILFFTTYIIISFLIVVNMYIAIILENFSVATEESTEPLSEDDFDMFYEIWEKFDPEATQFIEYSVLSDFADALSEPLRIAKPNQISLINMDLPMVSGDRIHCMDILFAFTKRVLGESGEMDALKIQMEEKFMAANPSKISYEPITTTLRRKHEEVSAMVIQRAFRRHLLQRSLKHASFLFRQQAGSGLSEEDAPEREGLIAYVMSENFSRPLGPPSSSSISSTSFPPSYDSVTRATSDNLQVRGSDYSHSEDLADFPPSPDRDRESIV
T4 sequence (P25021 whole entry): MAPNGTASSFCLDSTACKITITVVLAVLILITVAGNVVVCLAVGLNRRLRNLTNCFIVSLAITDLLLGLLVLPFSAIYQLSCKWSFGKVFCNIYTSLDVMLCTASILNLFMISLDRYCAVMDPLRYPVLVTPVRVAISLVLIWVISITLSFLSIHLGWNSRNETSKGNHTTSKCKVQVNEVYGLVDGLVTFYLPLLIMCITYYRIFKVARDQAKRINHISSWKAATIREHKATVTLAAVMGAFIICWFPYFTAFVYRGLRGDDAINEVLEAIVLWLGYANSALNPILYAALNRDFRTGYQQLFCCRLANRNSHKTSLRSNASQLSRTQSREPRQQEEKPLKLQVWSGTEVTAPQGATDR

COCCOCCOCCOCCOCCOCCN(C)CCC=C1c2ccccc2CCc2ccccc21 [mPEG6-N-Amitriptyline]
H1 Receptor Fold-change over parent [1]: 19
Ki [1]: 0.00613 µM
Ki [2]: 0.869 µM
Ki [3]: 1.17 µM

COCCOCCOCCNC(=O)N1c2ccccc2C=Cc2ccccc21 [mPEG3-N-Carbamazepine]
Cardiac INa Fold Change Relative to Parent, 0.1 Hz [4]: 2.8
Cardiac INa Fold Change Relative to Parent, 3 Hz [4]: 1.5
IC50 [4, 11]: 460 µM
IC50 [4, 12]: 214 µM
IC50 [5, 13]: 142 µM
IC50 [5, 14]: 578 µM

NC(=O)N1c2ccccc2C=Cc2ccccc21 [Carbamazepine, reference compound]
Cardiac INa Fold Change Relative to Parent, 0.1 Hz ([4]; pacing 0.1 Hz, relative to carbamazepine): 1.0
IC50 [4, 11]: 160 µM
Cardiac INa Fold Change Relative to Parent, 3 Hz ([4]; pacing 3 Hz, relative to carbamazepine): 1.0
IC50 [4, 12]: 145 µM
IC50 [5, 13]: 102 µM
IC50 [5, 14]: 114 µM

COCCOCCOCCN(C)CCCN1c2ccccc2CCc2ccccc21 [mPEG3-N-Desipramine]
pKa [6]: 8.47

COCCOCCOCCOCCOCCN(C)CCC=C1c2ccccc2CCc2ccccc21 [mPEG5-N-Amitriptyline]
H1:H2 Selectivity [1]: 3670
H1 Receptor Fold-change over parent [1]: 11
Ki [1]: 0.00357 µM
H2 Receptor Fold-change over parent [7]: 63
Ki [7]: 13.1 µM

COCCOCCOCCOCCOCCNC(=O)N1c2ccccc2C=Cc2ccccc21 [mPEG5-N-Carbamazepine]
Cardiac INa Fold Change Relative to Parent, 0.1 Hz [4]: 0.4
Cardiac INa Fold Change Relative to Parent, 3 Hz [4]: 0.4

COCCOCCOCCOCCOCCOCCOCCNCCCN1c2ccccc2CCc2ccccc21 [mPEG7-NH-Desipramine, N-mPEG7-3-(10,11-dihydro-dibenzo[b,f]azepin-5-yl)-propylamine]
logP [6]: 2.5
pKa [6]: 8.94
Fold Change Relative to Parent [8]: 2972
Ki [8]: 5.92 µM

NC1=N[C@H](O)[C@H]2[C@H]3O[C@]4(O)O[C@@H]([C@@H](O)[C@@]2(N1)[C@@H]4O)[C@]3(O)CO [TTX, tetrodotoxin, reference compound]
reduction of INa [4]: 47.2% and 56.8%
reduction of INa [5]: 93.2% and 96.8%

COCCOCCOCCOCCOCCN(C)CCCN1c2ccccc2CCc2ccccc21 [mPEG5-N-Desipramine]
pKa [6]: 8.55

COCCOCCOCCOCCOCCOCCOCCNC(=O)N1c2ccccc2C=Cc2ccccc21 [mPEG7-N-Carbamazepine]
Cardiac INa Fold Change Relative to Parent, 0.1 Hz [4]: 2.4
Cardiac INa Fold Change Relative to Parent, 3 Hz [4]: 1.2
IC50 [4, 11]: 380 µM
IC50 [4, 12]: 169 µM
IC50 [5, 13]: 144 µM
IC50 [5, 14]: 163 µM

COCCOCCOCCN(C)CCC=C1c2ccccc2CCc2ccccc21 [mPEG3-N-Amitriptyline]
H1:H2 Selectivity [1]: 1663
H1 Receptor Fold-change over parent [1]: 6
Ki [1]: 0.00181 µM
H2 Receptor Fold-change over parent [7]: 14
Ki [7]: 3.01 µM

COCCOCCOCCOCCOCCOCCOCCN(C)CCC=C1c2ccccc2CCc2ccccc21 [mPEG7-N-Amitriptyline]
H1 Receptor Fold-change over parent [1]: 23
Ki [1]: 0.00744 µM
Ki [3]: 1.14 µM

COCCOCCOCCNCCCN1c2ccccc2CCc2ccccc21 [mPEG3-NH-Desipramine, N-mPEG3-3-(10,11-dihydro-dibenzo[b,f]azepin-5-yl)-propylamine]
logP [6]: 3.14
pKa [6]: 8.96
Fold Change Relative to Parent [8]: 3336
Ki [8]: 6.65 µM

COCCOCCOCCOCCOCCOCCOCCOCCN(C)CCCN1c2ccccc2CCc2ccccc21 [mPEG8-N-Desipramine]
pKa [6]: 8.66

CN(C)CCC=C1c2ccccc2CCc2ccccc21 [Amitriptyline]
Ki [9]: 0.0239 µM
Ki [10]: 0.017 µM

Reference: US8569380B2, “Oligomer-tricyclic conjugates” (Nektar Therapeutics, priority 2007, dated 2013)
